Experimental data reported in US20230322815A1, “NOVEL COMPOUNDS AND THERAPEUTIC USES THEREOF” (University of Huddersfield, priority 2020, published 2023).

Experiments:
[1] = Dephosphorylation of phosphorylated amino acid (31P NMR); details: 37° C.
Description: (§1) FIG. 6. Phosphatase activity of [L2Zn3]^6+. ^31P NMR spectra using different substrates including PhOPO3 (spectra A to D), serine phosphate (spectra E to H), threonine phosphate (spectra I to L) and tyrosine phosphate (spectra M to P). Specific details for each ^31P NMR spectra are as follows: Spectra A, E, I and M represent substrate alone (44 hrs incubated @ 37° C.); Spectra B, F, J and N represents [L2Zn3]^6+ plus substrate (t=0 min); Spectra C, G, K and O represents [L2Zn3]^6+ plus substrate incubated @ 37° C. for 19 hours; Spectra D, H, L and […] represents [L2Zn3]^6+ plus substrate incubated @ 37° C. for 44 hours. The ^31P NMR of [L2Zn3(PO4)]^3+ gives a signal at 8.6 ppm.
(§2) Given the importance of protein phosphorylation in inter- and intra-cellular signalling and to cell function, and its common dysregulation in cancers,^30, 31 it was next analysed whether the Zn^2+ complex could dephosphorylate the phosphorylated amino acids serine, threonine and tyrosine. […] Dephosphorylation of the amino acid threonine-OPO3^2− by the Zn^2+ complex was much slower however and after 48 hrs threonine-OPO3^2− was still the major species (FIG. 6, spectra I-L). Differences in reactivity towards different substrates can be attributed to both steric and electronic effects. […]

[2] = as above; details: 37° C.; remark: listed apart in the source
Description: as §1, §2

[3] = Phosphatase activity: hydrolysis of 4-nitrophenyl phosphate; details: following mixing
Source text: Only [L2Zn3(PO4)]^3+ was observed, coupled with a rapid yellowing of the solution due to the formation of 4-nitrophenolate.
The rate of substrate hydrolysis is also dependent upon the metal used in the self-assembly process.

[4] = tested on: HCT116 p53^−/− cancer cells; assay: Autophagy (CYTO-ID staining, confocal); format: cell-based, human; details: 3.125 μM, 40 h
Description: FIG. 17. The effects of [L2Cu3]^6+, [L2Zn3]^6+ and [L2Mn3]^6+ on cellular vacuole formation and autophagy in the HCT116 p53^−/− cancer cells. Representative confocal images are shown of HCT116 p53^−/− cancer cells following 40 h treatment with vehicle control or 3.125 μM [L2Cu3]^6+, [L2Zn3]^6+, or [L2Mn3]^6+.
Autophagy studies: The effects of 3.125 μM [L2Cu3]^6+, [L2Zn3]^6+ and [L2Mn3]^6+ treatments (40 h) on the induction of cellular vacuoles and autophagy in the HCT116 p53^−/−, HCT116 p53^+/+ and ARPE19 cells are presented in FIGS. 17-19 with representative cell images shown. […] In the ARPE19 cells, levels of autophagy were low with all treatments and similar to basal levels in control-treated cells (FIG. 19).

[Zn+2].[Zn+2].[Zn+2].c1ccc(-c2csc(NCCN(CCNc3nc(-c4ccccn4)cs3)CCNc3nc(-c4ccccn4)cs3)n2)nc1.c1ccc(-c2csc(NCCN(CCNc3nc(-c4ccccn4)cs3)CCNc3nc(-c4ccccn4)cs3)n2)nc1 [[L2Zn3]^6+]
time to completion of dephosphorylation [1]: 48 h
time to completion of dephosphorylation [2]: 48 h
rate of dephosphorylation ([2]; after 48 hrs threonine-OPO3^2− still the major species): much slower
hydrolysis of 4-nitrophenyl phosphate by 31P NMR [3]: almost immediate hydrolysis

[Cu+2].[Cu+2].[Cu+2].c1ccc(-c2csc(NCCN(CCNc3nc(-c4ccccn4)cs3)CCNc3nc(-c4ccccn4)cs3)n2)nc1.c1ccc(-c2csc(NCCN(CCNc3nc(-c4ccccn4)cs3)CCNc3nc(-c4ccccn4)cs3)n2)nc1 [[L2Cu3]^6+]
induction of autophagy [4]: no or little autophagy
